In patent US8088780B2, “5,7-disubstituted thiazolo[4,5-D]pyrimidines for the selective inhibition of chemokine receptors” (AstraZeneca AB, priority 2005, dated 2012):

Key:
[1] = biological target: T1, CX3CR1 (Homo sapiens, UniProt P49238); experiment: [125I]-fractalkine competition receptor binding assay on membranes of cells expressing hCX3CR1; conditions: HEKS 293 hCX3CR1 membranes
T1 construct: expressed in transfected cells
T1 sequence (P49238 1-355): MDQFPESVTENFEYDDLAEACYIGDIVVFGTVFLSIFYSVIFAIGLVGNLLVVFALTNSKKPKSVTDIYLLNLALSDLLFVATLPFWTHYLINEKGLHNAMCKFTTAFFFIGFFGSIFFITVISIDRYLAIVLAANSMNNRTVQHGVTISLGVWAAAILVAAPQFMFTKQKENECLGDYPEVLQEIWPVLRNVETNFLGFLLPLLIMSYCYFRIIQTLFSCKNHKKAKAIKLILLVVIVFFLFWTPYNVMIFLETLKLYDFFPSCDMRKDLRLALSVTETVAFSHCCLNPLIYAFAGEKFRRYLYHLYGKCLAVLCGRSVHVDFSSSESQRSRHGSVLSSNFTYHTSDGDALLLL
Description: The complete human CX3CR1 cDNA (GenBank accession number U20350) was extracted from human brain mRNA (Superscript, Life Technologies) and ligated into pCR-Blunt II TOPO vector (InVitrogen). The insert corresponding hCX3CR1 was isolated and further subcloned into pcDNA3.1zeo. Plasmid DNA was prepared using Plasmid Midi Kit (Qiagen). […] A stable clone was generated utilizing zeocin (500 μg/mL) and hygromycin (100 μg/mL) selection. For further applications the cells were maintained in Dulbecco's modified Eagle's medium/Ham's nutrient mix F12 (DMEM/F12) containing pyridoxine and supplemented with 10% (v/v) fetal bovine serum, 2 mM L-glutamine, 100 U/ml penicillin and 100 mg/ml streptomycin, 250 μg/mL zeocin and 100 μg/mL hygromycin.
Cells are grown at 37° C. and 5% CO2 and harvested at 60-80% confluence in buffer containing 10 mM Tris-HCl pH 7.4, 5 mM EDTA, 0.1 mg/mL bacitracin. The cells are centrifuged at 300×g for 10 min and the pellet is resuspended in harvesting buffer (10 mM Tris-HCl, pH 7.4, 5 mM ethylenediaminetetra-acetic acid (EDTA) and 0.1 mg/mL bacitracin), pooled and homogenised using a Dounce homogeniser. […]
Ten concentrations (2 points/log unit) of the test compounds were pre-dissolved in DMSO and added to reach a final concentration of 1% (v/v) DMSO. […] Scintillation cocktail was added and radioactivity was determined in a Packard 2500TR liquid scintillation counter.

[2] = biological target: T2, CXCR2 (Homo sapiens, UniProt P25025); experiment: [125I]-hIL-8 competition binding (SPA) on membranes of cells expressing human CXCR2; conditions: receptor binding, [125I]-hIL-8, human CXCR2 membranes
T2 construct: kept under geneticin/G418 selection
T2 sequence (P25025 1-360): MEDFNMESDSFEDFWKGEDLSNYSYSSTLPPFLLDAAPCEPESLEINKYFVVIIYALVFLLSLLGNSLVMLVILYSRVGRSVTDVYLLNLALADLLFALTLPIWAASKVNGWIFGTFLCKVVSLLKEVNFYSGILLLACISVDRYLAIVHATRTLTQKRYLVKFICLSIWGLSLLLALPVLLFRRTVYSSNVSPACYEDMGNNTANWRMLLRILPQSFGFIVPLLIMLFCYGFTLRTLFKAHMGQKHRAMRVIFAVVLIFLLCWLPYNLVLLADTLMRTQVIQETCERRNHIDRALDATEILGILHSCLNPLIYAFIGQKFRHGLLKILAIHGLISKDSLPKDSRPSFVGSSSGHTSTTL
Description: Cells expressing human CXCR2 obtained from AstraZeneca Charnwood are cultured in EMEM containing Glutamax and supplemented with 10% FBS (from PAA, Austria), 1% non-essential amino acids (NEAA), 100 U/mL penicillin and 100 μg/mL streptomycin (PEST) and 500 μg/mL geneticin/G418.
Cells are grown at 37° C. and 5% CO2 and harvested at 60-80% confluence in buffer containing 10 mM Tris-HCl pH 7.4, 5 mM EDTA, 0.1 mg/mL bacitracin. The cells are centrifuged at 300×g for 10 min and the pellet is resuspended in harvesting buffer (10 mM Tris-HCl, pH 7.4, 5 mM ethylenediaminetetra-acetic acid (EDTA) and 0.1 mg/mL bacitracin), pooled and homogenised using a Dounce homogeniser. The homogenate is centrifuged in 48000×g for 10 min and resuspended in harvesting buffer using Ultra-Turrax T8. Membrane aliquots are stored at −80° C.
The non-specific binding is determined in the presence of 500 nM unlabelled hIL-8. The agonist hIL-8 (a concentration-response curve from 3 pM to 30 nM), is used as reference compound at each test occasion. […] The binding reaction is started by addition of 140 μL membrane-SPA preparation, and the samples are incubated in dark at RT for 4 h.

Row | SMILES | Ki [1] [nM] | Ki [2] [nM]
1 | CCC(Sc1nc(N[C@@H](CO)CC(C)C)c2sc(=O)[nH]c2n1)c1ccccc1 (stereo partly shown) | 5.8 | 651
2 | CC(C)C[C@H](CO)Nc1nc(SCc2ccccc2)nc2[nH]c(=O)sc12 [5-(benzylthio)-7-{[(1R)-1-(hydroxymethyl)-3-methylbutyl]amino}[1,3]thiazolo[4,5-d]pyrimidin-2(3H)-one] | 54 | 79
